Data from patent US20080124287A1, “Cosmetic composition having whitening effect comprising extract of pulsatilla radix as main ingredient” (priority 2002, published 2008).
Entries after “also recorded” stand apart in the source; their conditions may differ.

Legend:
[1] = tested on: Tyrosinase; assay: Measurement of inhibition action against tyrosinase; type: biochemical
Description: Tyrosinase was purchased from Sigma Company. The enzyme was dissolved in […]. Sodium phosphate buffer (0.1 M, pH 6.0), a substrate of enzyme and adjusted 1.6 mg/ml of concentration to obtain an enzyme solution. Sample was dissolved in sodium phosphate buffer and the undissolved residue was filtered out. 0.7 ml of the buffer, 0.2 ml of sample and 0.1 ml (15.7 unit/ml) of the enzyme solution were mixed and after 60 seconds, absorbance was measured at 475 nm by spectrophotometer.
By the following equation, inhibition ratio(%) of tyrosinase was calculated.
Inhibition ratio(%) of tyrosinase=[1−(S−B)/C]×100
wherein, • S: Test tube having enzyme and sample, • B: Test tube having sample, • C: Test tube having enzyme.

[2] = Water solubility; type: physicochemical
[3] = tested on: liver spots of women; assay: Whitening effect of preparation composed of ranunculin, deoxypodophyllotoxin and SB365 on clinical trial; type: in vivo, human; details: concluded from compositions with and without SB365
Description: Pharmaceutical composition: 10 mg of ranunculin, 50 mg of deoxypodophyllotoxin, and 15 mg of SB365 were mixed well together with the base (19 g) to obtain pharmaceutical composition and the composition was rubbed on the area of liver spots three times a day till the time of curing.
A composition from which SB365 which was not effective on tyrosinase was deleted was used. The composition were administered to five women (F, G, H, I, K) having liver spots.

| Structure (SMILES) | inhibition against tyrosinase ([1]; at 0.03 μg/ml) [%] | inhibition of activity of tyrosinase ([1]; at 0.03/g/ml) [%] | water solubility [2] | effect against tyrosinase (in words) [1] | whitening effect in clinical trials [3] |
| --- | --- | --- | --- | --- | --- |
| COc1cc([C@@H]2c3cc4c(cc3C[C@H]3COC(=O)[C@@H]32)OCO4)cc(OC)c1OC [Deoxypodophyllotoxin] | 38 | 38 | very low and low | – | – |
| CC1OC(OC2C(O[C@H]3CC[C@@]4(C)C(CC[C@]5(C)C4CC=C4C6CC(C)(C)CC[C@]6(C(=O)O)CC[C@]45C)[C@]3(C)CO)OCC(OC3OC(CO)C(O)C(O)C3O)C2O)C(O)C(O)C1O (stereo partly drawn) [SB365, 3-O-α-L-ramnopyranosyl(1→2)-[β-D-glucopyranosyl(1→4)]-α-L-arabinopyranoside] | – | – | – | not effective; also recorded: did not inhibit; also recorded: no effect | have whitening effect; also recorded: excellent whitening effect |
